This note sets out measurements from patent US12089595B2, “Pseudomonas strains and their metabolites to control plant diseases” (T3 Bioscience, Inc., priority 2020, dated 2024).

Structures are written as SMILES. Values after ≈ are worked out from the molar mass of the structure shown. “Also recorded” adds a separate entry of the source.

In data set [1] the test system is Phytophthora infestans Pi 1306. The data set is described as follows: microbe, parasite or virus in culture. In kind it is cell-based.
Data set [2] relates to Phytophthora infestans Pi 88069. The data set is described as follows: microbe, parasite or virus in culture. The format is cell-based.
Data set [3] has as its system Venturia inaequalis. The data set is described as follows: Antifungal assay on amended PDA plates. The format is cell-based. On the procedure:
The fungus Venturia inaqualis that causes apple scab was maintained on PDA agar in the dark at room temperature (˜24° C.). A mixture of conidia and mycelia suspension (in 0.01 M PBS) was harvested from PDA (Potato dextrose agar). Ten μL the conidia and mycelia suspension were dropped onto biocontrol bacteria, RejuAgro A, or RejuAgro A amended plates. The control was PDA plates without the addition of the biocontrol bacteria or RejuAgro A or B. […]

The test system of data set [4] is Mycosphaerella fijiensis 10CR-25. The data set is described as follows: Antimicrobial effect in PDA agar medium (6-well plate). The format is cell-based. On the procedure:
The antimicrobial effect of RejuAgro A on Mycosphaerella fijiensis was examined by adding final concentrations of 60 and 600 μg/mL of HPLC purified RejuAgro A respectively into the PDA agar medium. A 480 μL of 0.5 mg/mL or 5 mg/mL RejuAgro A was added into 3.52 mL of PDA in a well of a 6-well plate to make the final concentration of RejuAgro A at 60 (FIG. 12, middle well (panel A)) and 600 μg/mL (FIG. 12, left well (panel B)) respectively. The plate was gently shaken to let the compound dissolved.

In data set [5] the test system is the other soft pathogenetic bacteria (Pectobacterium, Dickeya dadantii). Description: MIC antimicrobial assay. In kind it is cell-based.
The test system of data set [6] is P. infestans. Description: microbe, parasite or virus in culture. The format is cell-based. The settings on record: Phytophthora infestans.
The subject of data set [7] is E. amylovora. The data set is described as follows: Plate diffusion assay in LB plates. Particulars: 2 mg/mL; for zone of inhibition at 2000 µg/mL: Erwinia amylovora, read-out: Diameter of the Inhibitory zone. The format is cell-based, Erwinia amylovora. The text has this: (§1) Two assays were used for the antimicrobial test of 0617-T307 cell broth and metabolites. One is plate diffusion assay and the other one is microplate assay. LB plate was used for the plate diffusion assay of the antimicrobial activity of RejuAgro A containing fractions and cell broths against E. amylovora (Table 3).

Data set [8] relates to strain 0617-T307. Description: Bioactive fractions tested against the producer strain. Particulars: crude extracts 100 μg/mL; flash-RejuAgro A 20 μg/mL; HPLC-RejuAgro A 10 μg/mL. The format is cell-based, Pseudomonas soli. The method, then:
as §1
(§2) The bioactive fractions (crude extracts, 100 μg/mL; flash-RejuAgro A, 20 μg/mL; HPLC-RejuAgro A, 10 μg/mL) were tested against strains 0617-T307, Ea and Xac.

Data set [9] deals with Ea. The data set is described as follows: Bioactive fractions tested against Ea. Particulars: crude extracts 100 μg/mL; flash-RejuAgro A 20 μg/mL; HPLC-RejuAgro A 10 μg/mL. In kind it is cell-based, Erwinia amylovora. The method, then: as §1, §2
For data set [10], the system named is Xac. Description: Bioactive fractions tested against Xac. In kind it is cell-based, Xanthomonas axonopodis pv. citri. The settings on record: crude extracts 100 μg/mL; flash-RejuAgro A 20 μg/mL; HPLC-RejuAgro A 10 μg/mL.
For data set [11], the system named is Xanthomonas oryzae pv. oryzicola (Xon507). Description: microbe, parasite or virus in culture. The settings on record: 44 h, read-out: Inhibition zone. In kind it is cell-based.
In data set [12] the test system is Liberibacter crescens BT-1. Description: microbe, parasite or virus in culture. The format is cell-based.
Data set [13] concerns Septoria tritici. Description: microbe, parasite or virus in culture. The settings on record: Zymoseptoria tritici, 144 h. The format is cell-based.
For data set [14], the system named is Colletotrichum dematium. Description: microbe, parasite or virus in culture. The format is cell-based. The settings on record: 144 h.
Data set [15] relates to Fusarium oxysporum f. sp. Melonsis. Description: microbe, parasite or virus in culture. The format is cell-based. Particulars: 144 h.
In data set [16] the test system is Magnaporthe oryzae. Description: microbe, parasite or virus in culture. The format is cell-based. Particulars: Pyricularia oryzae, 144 h.
A short description of data set [17]: Stability of RejuAgro A in the culture (LCMS). The format is physicochemical. Particulars: room temperature; 40-h culture of 0617-T307 in YME; tested by LCMS. The method, then:
RejuAgro A can be present and stable in the culture at room temperature for at least 4 weeks, as tested by LCMS for 40-h culture obtained by growing 0617-T307 in YME media on a shaker at 16° C. and 220 rpm.

Data set [18] can be described thus: Solubility in solvents. In kind it is physicochemical. The settings on record: methanol, chloroform. The method, then: Preparative HPLC (Prep-HPLC) purification of the fraction 3840 and 5054 lead to the discovery of 15 mg yellow colored compound RejuAgro A (Rt17.5) and 103.3 mg dark-green colored compound RejuAgro B, respectively. […] The structures of the two compounds have been investigated by High resolution mass spectrometry (HR-MS), infrared (IR), Ultraviolet (UV), 1D and 2D Nuclear magnetic resonance (NMR) as well as X-ray crystal structure analysis.

For data set [19], the system named is Xanthomonas citri pv. citri citrange (XW19). The data set is described as follows: Paper disc inhibition zone on PSG agar plates. Particulars: 44 h, read-out: Inhibition zone.
Data set [20] concerns Ralstonia solanacearum K60. The data set is described as follows: microbe, parasite or virus in culture. Particulars: K60, Ralstonia solanacearum K60 (bacterial wilt). The format is cell-based.
The subject of data set [21] is Ralstonia solanacearum Pss4. The data set is described as follows: microbe, parasite or virus in culture. In kind it is cell-based. Particulars: PSS4, Ralstonia solanacearum Pss4 (bacterial wilt).
The subject of data set [22] is E. amylovora Ea110. Description: Field assay on apple trees in the orchard. In kind it is in vivo, Erwinia amylovora. Particulars: apple orchard 2019; bacteria at 5×10^8 CFU/mL; Ea110 5×10^6 CFU/mL; water control 32.9%. The text has this:
For the field assay, biological control bacteria (0617-T307, 0118-T319, 0318-T327, 0418-T328; see Table 2) that produce RejuAgro A were applied on the flowers of the apple trees in the orchard on May 5th and May 6th of 2019 (40% and 70% bloom of apple flowers) at the concentration of 5×10^8 CFU/mL. The bacterial pathogen E. amylovora Ea110 was inoculated on May 7th (90% bloom), at the concentration of 5×10^6 CFU/mL. […] Compared with streptomycin, the biocontrol bacteria that produce RejuAgro A have similar or better efficacy on controlling fire blight in the apple orchards.

For orientation: inhibition means the percentage by which the read-out fell short of the control. Higher therefore signals strong suppression.

Regarding `CSC1=C(C)C(=O)C(=O)NC1=O` [RejuAgro A], the MIC in [1] is 40 µg/mL (≈ 216 µM); in data set [2], 40 µg/mL (≈ 216 µM); in data set [3] (Venturia inaequalis (Apple scab)) it was 80 µg/mL (≈ 432 µM); in data set [4] (Pseudocercospora fijiensis, 10CR25, Mycosphaerella fijiensis 10CR-25 (black sigatoka of Banana)) it was 600 µg/mL (≈ 3240 µM); in data set [5], 20 to 40 µg/mL (≈ 108 to 216 µM); in data set [12] (Liberibacter crescens, BT1, read-out: minimal inhibitory concentration (MIC)) it was 2.5 µg/mL (≈ 13.5 µM). Further, the MIC in [13] is 100 µg/mL (≈ 540 µM); in data set [14] it was 50 µg/mL (≈ 270 µM); in data set [15] it was 100 µg/mL (≈ 540 µM); in data set [16], 75 µg/mL (≈ 405 µM). In addition, the “growth of V. inaequalis on PDA plates” value in data set [3] (40-80 μg/mL in PDA plate, day 14 (figure)) is recorded as “can inhibit the growth; also recorded: cannot grow”. The molecule also returned an inhibition at 80 µg/mL in data set [3] (Venturia inaequalis) of 100%. The “growth of M. fijiensis on PDA agar” value is recorded as “growth” in data set [4] (60 μg/mL) and “complete inhibition; also recorded: inhibitory growth” in [4] (600 μg/mL, two weeks post-inoculation). For the same molecule, at 40 µg/mL the inhibition in data set [6] was 100%. The “Diameter of the Inhibitory zone” value in data set [7] is given as “showed the antimicrobial activity”. The zone of inhibition at 2000 µg/mL in data set [7] was determined as 11 mm. The “inhibition of growth of strain 0617-T307” value in [8] is “not able to inhibit the growth”. The “inhibition of growth of Ea” value in data set [9] is listed as “almost abolish the growth”. Moreover, the “inhibition of growth of Xac” value in data set [10] is reported as “almost abolish the growth”. For the same molecule, the values for the zone of inhibition at 5.5 µg/mL in data set [11] and in data set [19] were 2.7 ± 0.6 mm and 0 mm, respectively. Moreover, the zone of inhibition at 11.1 µg/mL in [11] amounted to 5 ± 1 mm; in data set [19] it was 0 mm. In addition, the zone of inhibition at 22.1 µg/mL in data set [11] is 7.3 ± 1.5 mm; in [19], 0 mm. Besides, the zone of inhibition at 33.2 µg/mL in [11] came out at 8.3 ± 1.5 mm; in data set [19], 0 mm. Besides, the zone of inhibition at 55.4 µg/mL stood at 9.3 ± 0.6 mm in [11] and 2.3 ± 0.6 mm in data set [19]. Moreover, the zone of inhibition at 110.7 µg/mL in data set [11] was 13.3 ± 1.2 mm; in data set [19], 2.7 ± 1.2 mm. Besides, the “growth of L. crescens” value in data set [12] (1 mg/L) is given as “partial inhibition of growth”; in data set [12] (2.5 mg/L, for 16 days) it was “inhibition of growth”. Also, the “growth of L. crescens BT1” value in data set [12] (BM7 medium at 28° C., 10 mg/L, 20 mg/L, and 40 mg/L) is given as “inhibition of growth”. For the same molecule, in [17], the “present and stable in the culture” value is reported as “at least 4 weeks”. For the same molecule, the “solubility in methanol and chloroform” value in data set [18] was “can be dissolved”.
Consider `[H]/N=C(/N)N[C@H]1[C@H](O)[C@@H](O)[C@H](O[C@@H]2O[C@@H](C)[C@](O)(C=O)[C@H]2O[C@@H]2O[C@@H](CO)[C@H](O)[C@@H](O)[C@@H]2NC)[C@@H](N/C(N)=N\[H])[C@@H]1O` [Streptomycin, reference compound], for which the MIC in data set [20] and in data set [21] was 12.5 µg/mL (≈ 21.5 µM) each time. The zone of inhibition at 2000 µg/mL in [7] was found to be 24 mm. The “percentage of diseased flower clusters” value in data set [22] was found to be 13.3%.
